From patent US20240402196A1 (Exact Sciences Corporation, priority 2018, published 2024)
Each block holds one compound with its values, some of them ahead of it.

Key:
Hb = biological target: T1, Hb (Homo sapiens, UniProt P68871+P69905); experiment: Appendix B additive screen, % Hb Recovery
T1 construct: To assess the stability of hemoglobin in stool samples, samples were exposed to simulated shipping stress conditions; from tissue; host or cells: stool samples

hemoglobin (Hb) = biological target: T2, hemoglobin (Hb) (Homo sapiens, UniProt P68871+P69905); experiment: Appendix B: additives in Hb Collection Buffer, % Hb Recovery
T2 construct: To assess the stability of hemoglobin in stool samples, samples were exposed to simulated shipping stress conditions; from tissue; host or cells: stool samples

[1] = biological target: T3, hemoglobin in stool samples (Homo sapiens, UniProt P68871+P69905); experiment: 3-Day shipping simulation, hemoglobin % recovery by ELISA; design: from tissue; host or cells: stool samples;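 note: stool samples put through shipping stress in a thermal cycler, hemoglobin quantified by ELISA before and after, stability given as post-stress % of the pre-stress level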
[2] = biological target: T3, hemoglobin in stool samples; experiment: Accelerated shipping simulation (35C 16 hour challenge), hemoglobin % recovery by ELISA; design: from tissue; host or cells: stool samples;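 note: stool hemoglobin measured by ELISA before and after thermal-cycler shipping stress, stability given as percent of pre-stress hemoglobin recovered afterwards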

T3 sequence (P69905 2-142 limits assumed): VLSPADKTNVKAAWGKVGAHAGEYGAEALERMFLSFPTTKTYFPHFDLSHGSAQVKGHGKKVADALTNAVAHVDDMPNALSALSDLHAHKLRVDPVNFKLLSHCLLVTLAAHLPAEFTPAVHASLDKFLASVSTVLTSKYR
T3 sequence (P68871 2-147 limits assumed): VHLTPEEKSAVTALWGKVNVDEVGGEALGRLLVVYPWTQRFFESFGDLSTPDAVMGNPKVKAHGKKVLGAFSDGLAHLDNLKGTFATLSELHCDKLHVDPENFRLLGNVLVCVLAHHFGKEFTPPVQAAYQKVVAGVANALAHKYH
T1 sequence (P69905 2-142 limits assumed): as the sequence (P69905 2-142 limits assumed) above
T1 sequence (P68871 2-147 limits assumed): as the sequence (P68871 2-147 limits assumed) above
T2 sequence (P69905 2-142 limits assumed): as the sequence (P69905 2-142 limits assumed) above
T2 sequence (P68871 2-147 limits assumed): as the sequence (P68871 2-147 limits assumed) above

Compound: CCn1cc[n+](C)c1.[Cl-] [1-ethyl-3-methylimidazolium chloride]
- Results (Hb): No Improvement

Compound: CCCCCCn1cc[n+](C)c1.[Cl-] [1-hexyl-3-methylimidazolium chloride]
- Results (Hb): No Improvement

Compound: Cl.Cn1sccc1=O [2-methyl-4-isothiazolin-3-one-hydrochloride]
- Results (Hb): No Improvement

- Results (Hb): No Improvement
Compound: O=[N+]([O-])C1(Br)COCOC1 [5-bromo-5-nitro-1,3-dioxane]

Compound: CC(=O)O.N [Ammonium Acetate]
- Results (Hb): No Improvement

Compound: Cl.N [Ammonium Chloride]
- Results (Hb): No Improvement

Compound: N.N.O=C(O)C(=O)O [Ammonium Oxalate]
- Results (Hb): No Improvement

Compound: N.N.O=S(=O)(O)O [Ammonium Sulfate]
- Results (Hb): No Improvement

Compound: [Ca+2].[Cl-].[Cl-] [Calcium Chloride (anhydrous)]
- Results (Hb): Calcium cation shows

Compound: O.O.[Ca+2].[Cl-].[Cl-] [Calcium Chloride (dihydrate)]
- Results (Hb): Calcium cation shows

Compound: OCCO [Ethylene Glycol]
- Results (Hb): No Improvement

Compound: NCC(=O)O [Glycine]
- Results (Hb): No Improvement

- Results (hemoglobin (Hb); Additive Concentration 0.00%): Improvement in % Hb
- Results (hemoglobin (Hb); additive concentration 0.0003%): Improvement in % Hb
Compound: C=CC1=C(C)c2cc3[n-]c(cc4nc(cc5[n-]c(cc1n2)c(C)c5C=C)C(C)=C4CCC(=O)O)c(CCC(=O)O)c3C.[Cl-].[Fe+3] [Hemin, pH 6.5]

- Results (Hb): No Improvement
Compound: [Cl][Fe][Cl] [Iron (2) Chloride]

Compound: [Cl-].[Li+] [Lithium Chloride]
- Results (Hb): No Improvement

Compound: [Cl-].[Cl-].[Mg+2] [Magnesium Chloride]
- Results (Hb): Magnesium Cation shows
- Results ([1]; additive concentration 5 mM): Magnesium Cation shows
- Results ([1]; additive concentration 10 mM): Magnesium Cation shows
- Results ([1]; additive concentration 20 mM): Magnesium Cation shows
- Results ([1]; additive concentration 30 mM): Magnesium Cation shows
- Results ([1]; additive concentration 40 mM): Magnesium Cation shows
- Results ([1]; additive concentration 50 mM): Magnesium Cation shows

Compound: CC(=O)[O-].[K+] [Potassium Acetate]
- Results (Hb): No Improvement

Compound: [Cl-].[K+] [Potassium Chloride]
- Results (Hb): No Improvement

- Results (hemoglobin (Hb); Additive Concentration 0.1 uM): No Improvement
- Results (hemoglobin (Hb); Additive Concentration 1 uM): No Improvement
- Results (hemoglobin (Hb); additive concentration 10 uM): No Improvement
Compound: C=CC1=C(C)c2cc3[n-]c(cc4nc(cc5[n-]c(cc1n2)c(C)c5C=C)C(C)=C4CCC(=O)O)c(CCC(=O)O)c3C.[Cu+2] [Protoporphyrin IX Copper]

- Results (hemoglobin (Hb); Additive Concentration 0.1 uM): No Improvement
- Results (hemoglobin (Hb); Additive Concentration 1 uM): No Improvement
- Results (hemoglobin (Hb); additive concentration 10 uM): No Improvement
- Results (hemoglobin (Hb); additive concentration 25 uM): No Improvement
- Results (hemoglobin (Hb); additive concentration 50 uM): No Improvement
Compound: C=CC1=C(C)c2cc3[n-]c(cc4nc(cc5[n-]c(cc1n2)c(C)c5CCC(=O)O)C(CCC(=O)O)=C4C)c(C)c3C=C.[Mg+2] [Protoporphyrin IX Magnesium]

- Results (hemoglobin (Hb); Additive Concentration 0.05 uM): No Improvement
- Results (hemoglobin (Hb); Additive Concentration 0.1 uM): No Improvement
- Results (hemoglobin (Hb); Additive Concentration 1 uM): No Improvement
- Results (hemoglobin (Hb); additive concentration 10 uM): No Improvement
Compound: C=CC1=C(C)c2cc3[n-]c(cc4nc(cc5[n-]c(cc1n2)c(C)c5C=C)C(C)=C4CCC(=O)O)c(CCC(=O)O)c3C.[Cl-].[Mn+3] [Protoporphyrin IX Mangansese]

- Results (hemoglobin (Hb); Additive Concentration 0.1 uM): No Improvement
- Results (hemoglobin (Hb); Additive Concentration 1 uM): No Improvement
- Results (hemoglobin (Hb); additive concentration 10 uM): No Improvement
Compound: C=CC1=C(C)c2cc3[n-]c(cc4nc(cc5[n-]c(cc1n2)c(C)c5C=C)C(C)=C4CCC(=O)O)c(CCC(=O)O)c3C.[Cl-].[Cl-].[Sn+4] [Protoporphyrin IX Tin]

- Results (Hb): No Improvement
Compound: C=CC1=C(C)c2cc3[n-]c(cc4nc(cc5[n-]c(cc1n2)c(C)c5C=C)C(C)=C4CCC(=O)O)c(CCC(=O)O)c3C.[Zn+2] [Protoprophyrin IX Zn]

Compound: CC(=O)[O-].[Na+] [Sodium Acetate]
- Results (Hb): No Improvement

Compound: O=C([O-])c1ccccc1.[Na+] [Sodium Benzoate]
- Results (Hb): No Improvement
- Results ([1]; Additive Concentration 0.03%): No improvement
- Results ([1]; Additive Concentration 0.04%): No improvement
- Results ([1]; Additive Concentration 0.05%): No improvement
- Results ([1]; Additive Concentration 0.06%): No improvement
- Results ([1]; Additive Concentration 0.10%): No improvement
- Results ([1]; Additive Concentration 0.50%): No improvement
- Results ([1]; Additive Concentration 1%): No improvement

Compound: O=C([O-])O.[Na+] [Sodium Bicarbonate]
- Results (Hb): No Improvement
- Results ([2]; additive concentration 0.0000895 mM): No Improvement
- Results ([2]; additive concentration 0.000895 mM): No Improvement
- Results ([2]; additive concentration 0.00895 mM): No Improvement
- Results ([2]; additive concentration 0.0895 mM): No Improvement
- Results ([2]; additive concentration 0.895 mM): No Improvement
- Results ([2]; additive concentration 8.95 mM): No Improvement

Compound: O=S([O-])O.[Na+] [Sodium Bisulfite]
- Results (Hb): No Improvement

Compound: [Br-].[Na+] [Sodium Bromide]
- Results (Hb): No Improvement

Compound: O=C([O-])[O-].[Na+].[Na+] [Sodium Carbonate]
- Results (Hb): No Improvement

Compound: [O-][Cl+3]([O-])([O-])O [Sodium Perchlorate]
- Results (Hb): No Improvement

Compound: O=P(O)(O)O [Sodium Phosphate]
- Results (Hb): No Improvement

Compound: C[N+](C)(C)[O-] [Trimethylamine N-oxide (TMANO)]
- Results (Hb): No Improvement
- Results ([2]; additive concentration 500 uM): No Improvement
- Results ([2]; additive concentration 5 mM): No Improvement
- Results ([2]; additive concentration 50 mM): No Improvement
- Results ([2]; additive concentration 87 mM): No Improvement
- Results ([1]; additive concentration 1.1M): Slight Improvement
- Results ([1]; additive concentration 2.15M): Slight Improvement
- Results ([1]; additive concentration 3M): No Improvement
- Results ([1]; additive concentration 3.5M): No Improvement
- Results ([1]; additive concentration 4M): No Improvement

- Results (hemoglobin (Hb); Additive Concentration 0%): No Improvement
- Results (hemoglobin (Hb); Additive Concentration 0.50%): No Improvement
- Results (hemoglobin (Hb); Additive Concentration 1%): No Improvement
- Results (hemoglobin (Hb); Additive Concentration 5%): No Improvement
- Results (hemoglobin (Hb); Additive Concentration 10%): No Improvement
Compound: BSA, pH 6.5

Compound: Calcium Gluconate
- Results (Hb): No Improvement

Compound: Magnesium Gluconate
- Results (Hb): No Improvement
- Results ([2]; additive concentration 1.2 uM): No Improvement
- Results ([2]; additive concentration 12 uM): No Improvement
- Results ([2]; additive concentration 120 uM): No Improvement
- Results ([1]; additive concentration 5 mM): Magnesium Cation shows
- Results ([1]; additive concentration 10 mM): Magnesium Cation shows
- Results ([1]; additive concentration 20 mM): Magnesium Cation shows
- Results ([1]; additive concentration 30 mM): Magnesium Cation shows
- Results ([1]; additive concentration 40 mM): Magnesium Cation shows
- Results ([1]; additive concentration 50 mM): Magnesium Cation shows

Compound: Sodium hydroxylmethyl glycinate
- Results (Hb): No Improvement

- Results (Hb): No Improvement
Compound: phosphatidylcholine
